In patent US12540131B2 (Merck Sharp & Dohme LLC, priority 2019, dated 2026):

Molecular target: GST tagged truncated human mutant G2019S LRRK2 (Homo sapiens (Human), UniProt Q5S007, G2019S)
Assay: LRRK2 Km ATP LanthaScreen Assay
Type: biochemical
Details: G2019S LRRK2, 134 μM ATP (Km ATP), mean values
Outline: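 Enzyme (GST-tagged, truncated) was preincubated with compound for 15 min at RT in 50 mM Tris pH 8.5, 10 mM MgCl2, 0.01% Brij-35, 1 mM EGTA, 2 mM DTT and 0.05 mM orthovanadate. Fluorescein-LRRKtide and 134 μM ATP (Km) were then added for 90 min. EDTA and Tb-anti-pERM antibody stopped the reaction; the TR-FRET 520/495 ratio gave 4-parameter IC50s, reported as mean pIC50.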

Chain of GST tagged truncated human mutant G2019S LRRK2 (Q5S007 970-2527 G2019S): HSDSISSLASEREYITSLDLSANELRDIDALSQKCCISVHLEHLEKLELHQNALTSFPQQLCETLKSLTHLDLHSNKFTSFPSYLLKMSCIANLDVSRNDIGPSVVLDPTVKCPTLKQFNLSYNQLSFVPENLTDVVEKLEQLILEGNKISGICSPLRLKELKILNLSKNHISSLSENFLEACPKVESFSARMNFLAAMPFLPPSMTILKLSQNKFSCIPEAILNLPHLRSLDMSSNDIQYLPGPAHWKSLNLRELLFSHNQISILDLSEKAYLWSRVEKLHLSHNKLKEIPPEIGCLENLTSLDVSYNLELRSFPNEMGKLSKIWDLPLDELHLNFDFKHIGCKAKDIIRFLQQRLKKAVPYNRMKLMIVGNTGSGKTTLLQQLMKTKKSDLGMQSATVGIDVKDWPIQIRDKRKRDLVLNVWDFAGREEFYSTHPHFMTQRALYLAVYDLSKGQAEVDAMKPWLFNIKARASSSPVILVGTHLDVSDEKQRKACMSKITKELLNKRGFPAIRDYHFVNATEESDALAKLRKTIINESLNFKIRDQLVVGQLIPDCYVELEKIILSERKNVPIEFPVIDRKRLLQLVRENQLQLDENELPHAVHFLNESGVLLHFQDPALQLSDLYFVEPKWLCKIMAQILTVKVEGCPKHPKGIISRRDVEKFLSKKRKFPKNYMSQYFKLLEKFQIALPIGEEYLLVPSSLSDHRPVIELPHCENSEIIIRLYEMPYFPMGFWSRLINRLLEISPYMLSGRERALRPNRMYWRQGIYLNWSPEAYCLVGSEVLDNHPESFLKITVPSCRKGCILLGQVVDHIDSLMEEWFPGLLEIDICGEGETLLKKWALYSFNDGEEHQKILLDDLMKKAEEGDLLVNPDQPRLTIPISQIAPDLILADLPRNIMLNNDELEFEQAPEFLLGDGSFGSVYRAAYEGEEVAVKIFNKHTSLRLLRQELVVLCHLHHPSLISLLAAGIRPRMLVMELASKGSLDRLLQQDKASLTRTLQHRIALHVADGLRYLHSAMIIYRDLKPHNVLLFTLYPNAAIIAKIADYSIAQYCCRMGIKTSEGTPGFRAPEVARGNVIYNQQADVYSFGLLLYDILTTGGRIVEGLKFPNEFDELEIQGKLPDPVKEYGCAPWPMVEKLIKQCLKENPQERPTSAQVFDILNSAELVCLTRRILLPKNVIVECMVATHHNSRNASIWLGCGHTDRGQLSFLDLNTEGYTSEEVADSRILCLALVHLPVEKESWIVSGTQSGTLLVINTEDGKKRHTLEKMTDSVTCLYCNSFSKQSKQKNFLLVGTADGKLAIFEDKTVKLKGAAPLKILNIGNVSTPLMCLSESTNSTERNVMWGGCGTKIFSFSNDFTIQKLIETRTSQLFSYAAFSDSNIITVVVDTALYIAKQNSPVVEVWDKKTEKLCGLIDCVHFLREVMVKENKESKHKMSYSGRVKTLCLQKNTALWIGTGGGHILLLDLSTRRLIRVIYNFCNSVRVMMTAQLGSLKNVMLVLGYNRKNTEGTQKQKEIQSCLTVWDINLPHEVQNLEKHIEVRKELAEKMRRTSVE

O[C@H]1COC[C@H]1N1CC[C@@H](c2cc3nc(Nc4cnn(C56CC(C5)C6)c4)ncc3cc2Cl)[C@H](F)C1 (single isomer, unassigned) [Ex-4.154, (3S,4S)(3S,4S) or (3S,4S)(3R,4R) or (3R,4R)(3S,4S) or (3R,4R)(3R,4R) 4-[4-(2-{[1-(bicyclo[1.1.1]pentan-1-yl)-1H-pyrazol-4-yl]amino}-6-chloroquinazolin-7-yl)-3-fluoropiperidin-1-yl]oxolan-3-ol]
LRRK2 pIC50: 9.06

O[C@@H]1COC[C@@H]1N1CC[C@H](c2cc3nc(Nc4cnn(C56CC(C5)C6)c4)ncc3cc2Cl)[C@@H](F)C1 (single isomer, unassigned) [Ex-4.155, (3S,4S)(3S,4S) or (3S,4S)(3R,4R) or (3R,4R)(3S,4S) or (3R,4R)(3R,4R) 4-[4-(2-{[1-(bicyclo[1.1.1]pentan-1-yl)-1H-pyrazol-4-yl]amino}-6-chloroquinazolin-7-yl)-3-fluoropiperidin-1-yl]oxolan-3-ol]
LRRK2 pIC50: >9.20

O[C@H]1COC[C@H]1N1CC[C@H](c2cc3nc(Nc4cnn(C56CC(C5)C6)c4)ncc3cc2Cl)[C@@H](F)C1 (single isomer, unassigned) [Ex-4.156, (3S,4S)(3S,4S) or (3S,4S)(3R,4R) or (3R,4R)(3S,4S) or (3R,4R)(3R,4R) 4-[4-(2-{[1-(bicyclo[1.1.1]pentan-1-yl)-1H-pyrazol-4-yl]amino}-6-chloroquinazolin-7-yl)-3-fluoropiperidin-1-yl]oxolan-3-ol]
LRRK2 pIC50: >9.20

OC1CCCC1N1CC[C@@H](c2cc3nc(Nc4cnn(C5CC5)c4Cl)ncc3cc2Cl)[C@H](F)C1 (single isomer, unassigned) [Ex-4.157, (1S,2R)(3S,4S) or (1R,2S)(3S,4S) or (1R,2R)(3S,4S) or (1S,2S)(3S,4S) or (1S,2R)(3R,4R) or (1R,2S)(3R,4R) or (1R,2R)(3R,4R) or (1S,2S)(3R,4R) 2-(4-{6-chloro-2-[(5-chloro-1-cyclopropyl-1H-pyrazol-4-yl)amino]quinazolin-7-yl}-3-fluoropiperidin-1-yl)cyclopentan-1-ol]
LRRK2 pIC50: 8.38

OC1CCCC1N1CC[C@H](c2cc3nc(Nc4cnn(C5CC5)c4Cl)ncc3cc2Cl)[C@@H](F)C1 (single isomer, unassigned) [Ex-4.158, (1S,2R)(3S,4S) or (1R,2S)(3S,4S) or (1R,2R)(3S,4S) or (1S,2S)(3S,4S) or (1S,2R)(3R,4R) or (1R,2S)(3R,4R) or (1R,2R)(3R,4R) or (1S,2S)(3R,4R) 2-(4-{6-chloro-2-[(5-chloro-1-cyclopropyl-1H-pyrazol-4-yl)amino]quinazolin-7-yl}-3-fluoropiperidin-1-yl)cyclopentan-1-ol]
LRRK2 pIC50: 8.99

Cc1c(Nc2ncc3cc(Cl)c([C@@H]4CCN(C5CCCC5O)C[C@H]4F)cc3n2)cnn1C1CC1 (single isomer, unassigned) [Ex-4.159, (1S,2R)(3S,4S) or (1R,2S)(3S,4S) or (1R,2R)(3S,4S) or (1S,2S)(3S,4S) or (1S,2R)(3R,4R) or (1R,2S)(3R,4R) or (1R,2R)(3R,4R) or (1S,2S)(3R,4R) 2-(4-{6-chloro-2-[(1-cyclopropyl-5-methyl-1H-pyrazol-4-yl)amino]quinazolin-7-yl}-3-fluoropiperidin-1-yl)cyclopentan-1-ol]
LRRK2 pIC50: >9.20

Cc1c(Nc2ncc3cc(Cl)c([C@H]4CCN(C5CCCC5O)C[C@@H]4F)cc3n2)cnn1C1CC1 (single isomer, unassigned) [Ex-4.160, (1S,2R)(3S,4S) or (1R,2S)(3S,4S) or (1R,2R)(3S,4S) or (1S,2S)(3S,4S) or (1S,2R)(3R,4R) or (1R,2S)(3R,4R) or (1R,2R)(3R,4R) or (1S,2S)(3R,4R) 2-(4-{6-chloro-2-[(1-cyclopropyl-5-methyl-1H-pyrazol-4-yl)amino]quinazolin-7-yl}-3-fluoropiperidin-1-yl)cyclopentan-1-ol]
LRRK2 pIC50: >9.20

Cc1c(Nc2ncc3cc(Cl)c([C@@H]4CCN([C@@H]5COC[C@@H]5O)C[C@H]4F)cc3n2)cnn1C12CC(C1)C2 (single isomer, unassigned) [Ex-4.161, (3S,4S)(3S,4S) or (3S,4S)(3R,4R) or (3R,4R)(3S,4S) or (3R,4R)(3R,4R) 4-[4-(2-{[1-(bicyclo[1.1.1]pentan-1-yl)-5-methyl-1H-pyrazol-4-yl]amino}-6-chloroquinazolin-7-yl)-3-fluoropiperidin-1-yl]oxolan-3-ol]
LRRK2 pIC50: 8.92

Cc1c(Nc2ncc3cc(Cl)c([C@@H]4CCN([C@H]5COC[C@H]5O)C[C@H]4F)cc3n2)cnn1C12CC(C1)C2 (single isomer, unassigned) [Ex-4.162, (3S,4S)(3S,4S) or (3S,4S)(3R,4R) or (3R,4R)(3S,4S) or (3R,4R)(3R,4R) 4-[4-(2-{[1-(bicyclo[1.1.1]pentan-1-yl)-5-methyl-1H-pyrazol-4-yl]amino}-6-chloroquinazolin-7-yl)-3-fluoropiperidin-1-yl]oxolan-3-ol]
LRRK2 pIC50: >9.20

Cc1cc2cnc(Nc3cnn(C45CC(C4)C5)c3C)nc2cc1[C@@H]1CCN([C@H]2COC[C@H]2O)C[C@H]1F (single isomer, unassigned) [Ex-4.164, (3S,4S)(3S,4S) or (3S,4S)(3R,4R) or (3R,4R)(3S,4S) or (3R,4R)(3R,4R) 4-[4-(2-{[1-(bicyclo[1.1.1]pentan-1-yl)-5-methyl-1H-pyrazol-4-yl]amino}-6-methylquinazolin-7-yl)-3-fluoropiperidin-1-yl]oxolan-3-ol]
LRRK2 pIC50: >9.20

Cc1cc2cnc(Nc3cnn(C45CC(C4)C5)c3C)nc2cc1[C@@H]1CCN([C@@H]2COC[C@@H]2O)C[C@H]1F (single isomer, unassigned) [Ex-4.165, (3S,4S)(3S,4S) or (3S,4S)(3R,4R) or (3R,4R)(3S,4S) or (3R,4R)(3R,4R) 4-[4-(2-{[1-(bicyclo[1.1.1]pentan-1-yl)-5-methyl-1H-pyrazol-4-yl]amino}-6-methylquinazolin-7-yl)-3-fluoropiperidin-1-yl]oxolan-3-ol]
LRRK2 pIC50: 8.67

Clc1cc2cnc(Nc3cnn(C4CC4)c3Cl)nc2cc1C1CCN(C2COC(C3CC3)C2)CC1 (single isomer, unassigned) [Ex-4.166, (3R,5R) or (3S,5R) or (3R,5S) or (3S,5S) 6-chloro-N-(5-chloro-1-cyclopropyl-1H-pyrazol-4-yl)-7-[1-(5-cyclopropyloxolan-3-yl)piperidin-4-yl]quinazolin-2-amine]
LRRK2 pIC50: 9.17

Clc1cc2cnc(Nc3cnn(C4CC4)c3Cl)nc2cc1C1CCN(C2COC(C3CC3)C2)CC1 (single isomer, unassigned) [Ex-4.167, (3R,5R) or (3S,5R) or (3R,5S) or (3S,5S) 6-chloro-N-(5-chloro-1-cyclopropyl-1H-pyrazol-4-yl)-7-[1-(5-cyclopropyloxolan-3-yl)piperidin-4-yl]quinazolin-2-amine]
LRRK2 pIC50: 8.14

Cc1c(Nc2ncc3cc(Cl)c(C4CCN(C5CCC(CC#N)C5)CC4)cc3n2)cnn1C1CC1 (single isomer, unassigned) [Ex-4.168, (1R,3R) or (1S,3R) or (1R,3S) or (1S,3S) [3-(4-{6-chloro-2-[(1-cyclopropyl-5-methyl-1H-pyrazol-4-yl)amino]quinazolin-7-yl}piperidin-1-yl)cyclopentyl]acetonitrile]
LRRK2 pIC50: 8.88
